Consider 21 compounds from patent publication US6686382B2, “Sulfonamides and derivatives thereof that modulate the activity of endothelin” (Encysive Pharmaceuticals Inc., priority 1999, dated 2004).

The structures appear in SMILES notation. Structures can show the parent of a compound that is named as a salt.

For one series, the target named is T1, human ETA receptors (Homo sapiens, UniProt P25101).
T1 construct: endogenous in cells; host or cells: TE 671 cells (ATCC HTB 139), membrane preparation
T1 sequence (P25101 21-427): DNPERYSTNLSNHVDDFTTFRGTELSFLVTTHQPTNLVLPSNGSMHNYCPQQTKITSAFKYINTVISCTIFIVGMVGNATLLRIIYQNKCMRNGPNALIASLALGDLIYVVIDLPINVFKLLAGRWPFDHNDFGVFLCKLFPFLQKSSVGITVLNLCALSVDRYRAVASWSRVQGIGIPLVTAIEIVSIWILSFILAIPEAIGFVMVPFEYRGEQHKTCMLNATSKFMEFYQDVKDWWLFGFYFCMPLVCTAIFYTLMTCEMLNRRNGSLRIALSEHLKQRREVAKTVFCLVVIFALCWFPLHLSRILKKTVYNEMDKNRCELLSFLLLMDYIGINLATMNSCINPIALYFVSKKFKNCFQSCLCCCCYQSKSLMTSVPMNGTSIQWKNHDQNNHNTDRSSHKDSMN
The experiment in a line: Endothelin binding inhibition, Binding Test #1: inhibition of binding to ETA receptors (TE 671 cell membranes). The note with it: relative to N-(4-chloro-3-methyl-5-isoxazolyl)-2-{[3,4-(methylenedioxy)-6-methylphenyl)acetyl]-thiophene-3-sulfonamide (= 1.0). The text has this: Compounds that are potential endothelin antagonists are identified by testing their ability to compete with ^125I-labeled ET-1 for binding to human ETA receptors or ETB receptors present on isolated cell membranes. The effectiveness of the test compound as an antagonist or agonist of the biological tissue response of endothelin can also be assessed by measuring the effect on endothelin induced contraction of isolated rat thoracic aortic rings. The ability of the compounds to act as antagonists or agonists for ETB receptors can be assess by testing the ability of the compounds are to inhibit endothelin-1 induced prostacyclin release from cultured bovine aortic endothelial cells.
A. Endothelin Binding Inhibition—Binding Test #1: Inhibition of Binding to ETA Receptors
TE 671 cells (ATCC Accession No. HTB 139) express ETA receptors. These cells were grown to confluence in T-175 flasks. Cells from multiple flasks were collected by scraping, pooled and centrifugedfor 10 min at 190×g. The cells were resuspended in phosphate buffered saline (PBS) containing 10 mM EDTA using a Tenbroeck homogenizer. The suspension was centrifuged at 4° C. at 57,800×g for 15 min, the pellet was resuspended in 5 ml of buffer A (5 mM HEPES buffer, pH 7.4 containing aprotinin (100 KIU/ml)) and then frozen and thawed once. 5 ml of Buffer B (5 mM HEPES Buffer, pH 7.4 containing 10 mM MnCl2 and 0.001% deoxyribonuclease Type 1) was added, the suspension mixed by inversion and then incubated at 37° C. for 30 minutes. The mixture was centrifuged at 57,800×g as described above, the pellet washed twice with buffer A and then resuspended in buffer C (30 mM HEPES buffer, pH 7.4 containing aprotinin (100 KIU/ml) to give a final protein concentration of 2 mg/ml and stored at −70° C. until use.
The membrane suspension was diluted with binding buffer (30 mM HEPES buffer, pH 7.4 containing 150 mM NaCl, 5 mM MgCl2, 0.5% Bacitracin) to a concentration of 8 μg/50 μl. ^125I-endothelin-1 (3,000 cpm, […]) was added to 50 μL of either: (A) endothelin-1 (for non specific binding) to give a final concentration 80 nM); (B) binding buffer (for total binding); or (C) a test compound (final concentration 1 nM to 100 μM). The membrane suspension (50 μL), containing up to 8 μg of membrane protein, was added to each of (A), (B), or (C). Mixtures were shaken, and incubated at 4° C. for 16-18 hours, and then centrifuged at 4° C. for 25 min at 2,500×g. Alternatively, the incubation was conducted at 24° C. […] This, must be kept in mind when comparing IC50 concentrations among compounds provided herein.
The supernatant, containing unbound radioactivity, was decanted and the pellet counted on a Genesys multiwell gamma counter. The degree of inhibition of binding (D) was calculated according to the following equation: [formula]
Each test was generally performed in triplicate.

`Cc1cc(C)c(NC(=O)c2sccc2S(=O)(=O)Nc2onc(C)c2Cl)c(C(C)O)c1` (stereo not shown) (as salt: Na) [Compound 18, 3-{[(4-chloro-3-methyl-5-isoxazolyl)amino]sulfonyl}-N-[2-(1-hydroxyethyl)-4,6-dimethylphenyl]-2-thiophene carboxamide] yielded a melting point of 147 to 154 °C. As for `CC(=O)c1cc2c(cc1NC(=O)c1sccc1S(=O)(=O)Nc1onc(C)c1C)OCO2` [3-{[(3,4-dimethyl-5-isoxazolyl)amino]sulfonyl}-N-(2-acetyl-4,5-methylenedioxyphenyl)-2-thiophenecarboxamide], the “ETA ACTIVITY (ETA antagonist activity relative to reference compound)” value at human ETA receptors stood at 0.05. Turning to `Cc1cc(C)c(CC(=O)c2sccc2S(=O)(=O)Nc2onc(C)c2Cl)c(C)c1` [3-{[(4-chloro-3-methyl-5-isoxazolyl)amino]sulfonyl}-2-(2,4,6-trimethylphenylacetyl)thiophene], the “ETA ACTIVITY (ETA antagonist activity relative to reference compound)” value on human ETA receptors was 6.4. In the case of `Cc1cc(C)c(NC(=O)c2sccc2S(=O)(=O)Nc2onc(C)c2Cl)c(C)c1` [3-{[(4-chloro-3-methyl-5-isoxazolyl)amino]sulfonyl}-N-(2,4,6-trimethylphenyl)-2-thiophenecarboxamide], the “ETA ACTIVITY (ETA antagonist activity relative to reference compound)” value on human ETA receptors turned out to be 2.4.

In the case of `CC(=O)c1cc2c(cc1NC(=O)c1sccc1S(=O)(=O)Nc1onc(C)c1Cl)OCO2` [3-{[(4-chloro-3-methyl-5-isoxazolyl)amino]sulfonyl}-N-(2-acetyl-4,5-methylenedioxyphenyl)-2-thiophenecarboxamide], the “ETA ACTIVITY (ETA antagonist activity relative to reference compound)” value at human ETA receptors was 0.15. Consider `Cc1cc(C)c(NC(=O)c2sccc2S(=O)(=O)Nc2onc(C)c2Cl)c(C(N)=O)c1` [3-{[(4-chloro-3-methyl-5-isoxazolyl)amino]sulfonyl}-N-(2-carbamoyl-4,6-dimethylphenyl)-2-thiophenecarboxamide], for which the “ETA ACTIVITY (ETA antagonist activity relative to reference compound)” value on human ETA receptors is listed as 1.04.

Take `Cc1cc(C)c(NC(=O)c2sccc2S(=O)(=O)Nc2onc(C)c2Cl)c(C(=O)O)c1` [3-{[(4-chloro-3-methyl-5-isoxazolyl)amino]sulfonyl}-N-(2-carboxyl-4,6-dimethylphenyl)-2-thiophenecarboxamide]: the “ETA ACTIVITY (ETA antagonist activity relative to reference compound)” value at human ETA receptors was 0.05.

As for `COC(=O)c1c(C)cc(C)c(NC(=O)c2sccc2S(=O)(=O)Nc2onc(C)c2Cl)c1C` [3-{[(4-chloro-3-methyl-5-isoxazolyl)amino]sulfonyl}-N-(3-methoxycarbonyl-2,4,6-trimethylphenyl)-2-thiophenecarboxamide], the “ETA ACTIVITY (ETA antagonist activity relative to reference compound)” value at human ETA receptors came to 4.7. Regarding `Cc1cc(C)c(NC(=O)c2sccc2S(=O)(=O)Nc2onc(C)c2C)c(C#N)c1C` [Compound 9, N-(2-cyano-3,4,6-trimethylphenyl)-3-{[(3,4-dimethyl-5-isoxazolyl)amino]sulfonyl}-2-thiophenecarboxamide], the “ETA ACTIVITY (ETA antagonist activity relative to reference compound)” value at human ETA receptors amounted to 18.6.

`Cc1cc(C)c(NC(=O)c2sccc2S(=O)(=O)Nc2onc(C)c2Cl)c(C(C)O)c1` (stereo not shown) [Compound 18, 3-{[(4-chloro-3-methyl-5-isoxazolyl)amino]sulfonyl}-N-[2-(1-hydroxyethyl)-4,6-dimethylphenyl]-2-thiophene carboxamide]: the “ETA ACTIVITY (ETA antagonist activity relative to reference compound)” value at human ETA receptors stood at 26.4. Consider `Cc1cc(C)c(NC(=O)c2sccc2S(=O)(=O)Nc2onc(C)c2Cl)c(C(=O)N(C)C)c1` [Compound 20, 3-{[(4-chloro-3-methyl-5-isoxazolyl)amino]sulfonyl}-N-{2-[(dimethylamino)carbonyl]-4,6-dimethylphenyl)-2-thiophene carboxamide], for which the “ETA ACTIVITY (ETA antagonist activity relative to reference compound)” value at human ETA receptors came out at 14.4. For `CO/N=C(\C)c1cc(C)cc(C)c1NC(=O)c1sccc1S(=O)(=O)Nc1onc(C)c1Cl` [Compound 22, 3-{[(4-chloro-3-methyl-5-isoxazolyl)amino]sulfonyl}-N-{2,4-dimethyl-6-[(methyloxy)ethanimidoyl]phenyl}-2-thiophene carboxamide], the melting point was 140 to 145 °C. In addition, on human ETA receptors, the “ETA ACTIVITY (ETA antagonist activity relative to reference compound)” value amounted to 23.6. For the compound `Cc1cc(C)c(OS(=O)(=O)N(C)C)c(C)c1NC(=O)c1sccc1S(=O)(=O)Nc1onc(C)c1Cl` [Compound 24, 3-{[(3-{[(4-chloro-3-methyl-5-isoxazolyl)amino]sulfonyl}-2-thiophenyl)carbonyl]amino}-2,4,6-trimethylphenyl-N,N-dimethylsulfamate], the melting point is 169 to 174 °C.

For the compound `Cc1cc(C)c(OCC2CC2)c(C)c1NC(=O)c1sccc1S(=O)(=O)Nc1onc(C)c1Cl` [Compound 26, 3-{[(4-chloro-3-methyl-5-isoxazolyl)amino]sulfonyl}-N-{3-[(cyclopropylmethyl)oxy]-2,4,6-trimethylphenyl}-2-thiophenecarboxamide], the melting point lay within 155 to 158 °C. Also, the “ETA ACTIVITY (ETA antagonist activity relative to reference compound)” value on human ETA receptors is 9.4.

`Cc1nc(C)c(NC(=O)c2sccc2S(=O)(=O)Nc2onc(C)c2Cl)c(C)n1` [Compound 28, 3-{[(4-chloro-3-methyl-5-isoxazolyl)amino]sulfonyl}-N-(2,4,6-trimethyl-5-pyrimidinyl)-2-thiophenecarboxamide] yielded a melting point of 170 to 175 °C. The “ETA ACTIVITY (ETA antagonist activity relative to reference compound)” value on human ETA receptors amounted to 2.0. The like results for `CC(=O)c1c(C)c(C)cc(C)c1NC(=O)c1sccc1S(=O)(=O)Nc1onc(C)c1Cl` [Compound 30, N-(2-acetyl-3,4,6-trimethylphenyl)-3-{[(4-chloro-3-methyl-5-isoxazolyl)amino]sulfonyl}-2-thiophenecarboxamide] were, in that order, 223 to 225 °C and 103.8. Turning to `Cc1cc(C)c(NC(=O)c2sccc2S(=O)(=O)Nc2onc(C)c2Cl)c(C#N)c1C` [Compound 32, 3-{[(4-chloro-3-methyl-5-isoxazolyl)amino]sulfonyl}-N-(2-cyano-3,4,6-trimethylphenyl)-2-thiophenecarboxamide], the “ETA ACTIVITY (ETA antagonist activity relative to reference compound)” value on human ETA receptors is given as 55.7. Take `CCCc1c(O)c(C(C)=O)cc(C(C)=O)c1NC(=O)c1sccc1S(=O)(=O)Nc1onc(C)c1Cl` [Compound 36]: the melting point was in the range of 163 to 167 °C. Besides, the “ETA ACTIVITY (ETA antagonist activity relative to reference compound)” value on human ETA receptors worked out at 0.1.

Regarding `Cc1cc(C)c(NC(=O)c2sccc2S(=O)(=O)Nc2onc(C)c2Cl)c(C(=O)N(C)CC(C)(C)C)c1` [Compound 40, 3-{[(4-chloro-3-methyl-5-isoxazolyl)amino]sulfonyl}-N-(2,4-dimethyl-6-{[methyl(2,2-dimethylpropyl)amino]carbonyl}phenyl)-2-thiophenecarboxamide], the melting point was in the range of 174 to 176 °C. Further, the “ETA ACTIVITY (ETA antagonist activity relative to reference compound)” value at human ETA receptors was found to be 2.7. In the case of `CCCS(=O)(=O)c1cc(C)cc(C)c1NC(=O)c1sccc1S(=O)(=O)Nc1onc(C)c1Cl` [Compound 48, 3-{[(4-chloro-3-methyl-5-isoxazolyl)amino]sulfonyl)-N-[2,4-dimethyl-6-(propylsulfonyl)phenyl]-2-thiophenecarboxamide], the melting point lay in the range of 152 to 155 °C. Turning to `CCc1cc(C)cc(C)c1NC(=O)c1sccc1S(=O)(=O)Nc1onc(C)c1Cl` [Compound 50, 3-{[(4-chloro-3-methyl-5-isoxazolyl)amino]sulfonyl}-N-(2-ethyl-4,6-dimethylphenyl)-2-thiophenecarboxamide], the melting point lay in the range of 152 to 154 °C. At human ETA receptors, the “ETA ACTIVITY (ETA antagonist activity relative to reference compound)” value was 3.8.
